Reference: US4272437A, “Antibacterial agents, and 4-thio azetidinone intermediates” (priority 1979, dated 1981)
≈ marks a conversion by molar mass, not a printed value. Like-named read-outs stand apart in the source and are kept apart here.

Columns and labels:
[1] = tested on: Staph. aureus (Pen-Res) A-9606; test: MIC, tube dilution, Staphylococcus aureus A9606 (Pen-Res); format: cell-based; conditions: Staphylococcus aureus, overnight 37° C.
Text: (§1) Representative compounds of the present invention were subjected to in vitro antibiotic screening against a variety of microorganisms.

[2] = tested on: Pr. mirabilis A-9900; test: MIC, tube dilution, Proteus mirabilis A9900; format: cell-based; conditions: Proteus mirabilis, A9900, Proteus mirabilis A9900; overnight 37° C.; read-out: Minimum Inhibitory Concentration (M.I.C.)
Text: as §1

[3] = tested on: K. pneumoniae A-15130; test: MIC, tube dilution, Klebsiella pneumoniae A15130; format: cell-based; conditions: Klebsiella pneumoniae, A15130, K. pneumoniae A15130; overnight 37° C.; read-out: Minimum Inhibitory Concentration (M.I.C.)
Text: as §1

[4] = tested on: E. coli A-20341-1; test: MIC, tube dilution, Escherichia coli A20341-1; format: cell-based
Text: as §1

[5] = tested on: Proteus rettgeri A21203; test: MIC, tube dilution, Proteus rettgeri A21203; format: cell-based; conditions: Providencia rettgeri, overnight 37° C., read-out: Minimum Inhibitory Concentration (M.I.C.)
Text: as §1

[6] = tested on: Str. pneumoniae A-9585; test: MIC, tube dilution, Streptococcus pneumoniae A9585; format: cell-based; conditions: Streptococcus pneumoniae, A9585, Str. pneumoniae A9585; overnight 37° C., Nutrient Broth; read-out: Minimum Inhibitory Concentration (M.I.C.)
Text: as §1

[7] = tested on: Str. pyogenes A-9604; test: MIC, tube dilution, Streptococcus pyogenes A9604; format: cell-based; conditions: Streptococcus pyogenes, A9604, Str. pyogenes A9604; overnight 37° C., Nutrient Broth; read-out: Minimum Inhibitory Concentration (M.I.C.)
Text: as §1

[8] = tested on: Ps. aeruginosa A-21213; test: MIC, tube dilution, Pseudomonas aeruginosa A21213; format: cell-based; conditions: overnight 37° C., read-out: Minimum Inhibitory Concentration (M.I.C.)
Text: as §1

[9] = tested on: Pr. morganii A-15153; test: MIC, tube dilution, Proteus morganii A15153; format: cell-based; conditions: Morganella morganii, A15153, Proteus morganii A15153; overnight 37° C.; read-out: Minimum Inhibitory Concentration (M.I.C.)
Text: as §1

[10] = tested on: Klebsiella species A20468; test: MIC, tube dilution, Klebsiella species A20468; format: cell-based; conditions: Klebsiella species (K. pneumoniae) A20468; overnight 37° C.; read-out: Minimum Inhibitory Concentration (M.I.C.)
Text: as §1

[11] = tested on: Str. faecalis A-20688; test: MIC, tube dilution, Streptococcus faecalis A20688; format: cell-based; conditions: Enterococcus faecalis, A20688, Str. faecalis A20688; overnight 37° C.; read-out: Minimum Inhibitory Concentration (M.I.C.)
Text: as §1

[12] = tested on: Ent. cloacae A-9656; test: MIC, tube dilution, Enterobacter cloacae A9656; format: cell-based; conditions: overnight 37° C., read-out: Minimum Inhibitory Concentration (M.I.C.)
Text: as §1

[13] = tested on: Staph. aureus A-9537 and 50% serum; test: MIC, tube dilution, Staph. aureus A9537 + 50% serum; format: cell-based, Staphylococcus aureus; conditions: Staphylococcus aureus, overnight 37° C., read-out: Minimum Inhibitory Concentration (M.I.C.)
Text: as §1

[14] = tested on: Staph. aureus (Meth-Res) A-15097; test: MIC, tube dilution, Staphylococcus aureus A15097 (Meth-Res); format: cell-based; conditions: Staphylococcus aureus, overnight 37° C.
Text: as §1

[15] = tested on: Ser. marcescens A-20019; test: MIC, tube dilution, Serratia marcescens A20019; format: cell-based; conditions: Serratia marcescens, A20019, Serratia marcescens A20019; overnight 37° C.; read-out: Minimum Inhibitory Concentration (M.I.C.)
Text: as §1

[16] = tested on: Ps. aeruginosa A-9843A; test: MIC, tube dilution, Pseudomonas aeruginosa A9843A; format: cell-based; conditions: Pseudomonas aeruginosa, A9843A, read-out: Minimum Inhibitory Concentration (M.I.C.), Pseudomonas aeruginosa A9843A; overnight 37° C.
Text: as §1

[17] = tested on: Proteus vulgaris A9555; test: MIC, tube dilution, Proteus vulgaris (mirabilis) A9555; format: cell-based; conditions: overnight 37° C., read-out: Minimum Inhibitory Concentration (M.I.C.)
Text: as §1

[18] = tested on: Ent. cloacae A-9659; test: MIC, tube dilution, Enterobacter cloacae A9659; format: cell-based; conditions: Enterobacter cloacae, A9659, Enterobacter cloacae A9659; overnight 37° C.; read-out: Minimum Inhibitory Concentration (M.I.C.)
Text: as §1

[19] = tested on: Staph. aureus A-9537; test: MIC, tube dilution, Staphylococcus aureus A9537; format: cell-based; conditions: Staphylococcus aureus, A9537, Staph. aureus A9537; overnight 37° C., Nutrient Broth; read-out: Minimum Inhibitory Concentration (M.I.C.)
Text: as §1

[20] = tested on: E. coli A-15119; test: MIC, tube dilution, Escherichia coli A15119; format: cell-based; conditions: Escherichia coli, A15119, E. coli A15119; overnight 37° C.; read-out: Minimum Inhibitory Concentration (M.I.C.)
Text: as §1

[21] = tested on: Pr. vulgaris A-9716; test: MIC, tube dilution, Proteus vulgaris / Proteus mirabilis A9716; format: cell-based, Proteus vulgaris (name changed to Proteus mirabilis); conditions: Proteus vulgaris, A9716, Proteus vulgaris / Proteus mirabilis A9716; overnight 37° C.; read-out: Minimum Inhibitory Concentration (M.I.C.)
Text: as §1

[22] = stability in aqueous solution followed by UV; format: physicochemical; set-up: unit not given here; conditions: for ε at λmax 255 in aqueous solution (stability) / ε at λmax 307 in aqueous solution (stability) / ε at λmax 254 in aqueous solution (stability): UV
Description: To a solution of penem 3 (2.4 g, 6.89 mmoles) in tetrahydrofuran-ether-water mixture (1:1:1, 165 ml) was added 30% palladium on diatomaceous earth (4.8 g). The reaction mixture was hydrogenated under 45 p.s.i. at 23° C. for 2.5 h and filtered over celite pad. The filtrate and washings were combined, washed twice with ether, centrifugated and filtered several times to give a clear solution which was lyophilized; 0.622 g, 45%. The crystallization of the compound was induced by the addition of water (0.8 ml); the suspension was centrifuged and the water was removed leaving an orange solid. This solid was washed twice with water and a slightly yellow solid was obtained after drying: […], 19.8%. UV λmax^H.sbsp.2^O : 307 (ε=4318) and 257 (ε=2650). Some crude starting material (1.2 g, 50%) was recovered. The compound (50 mg) can also be purified by column chromatography [Sephadex G10, column size: 1.6×100 cm, flow rate: 10 ml/h, eluent: distilled water, fraction volume: 1.5 ml, detector: refractive index]. UV λmax^H.sbsp.2^O 307 (ε=3597) and 255 (ε=2424).
The stability of the compound in aqueous solution was checked by:
A sample of compound 4 was kept at 23° C. for 3 days and the UV was taken: UV λmax^H.sbsp.2^O : 307 (ε=3055) and 255 (ε=2008).
To a solution of ester 6 (200 mg, 0.5 mmole) in tetrahydrofuran (10 ml) was added ether (10 ml), water (10 ml) and 30% palladium on diatomaceous earth (200 mg). The reaction mixture was hydrogenated in a Parr apparatus under 35 p.s.i. at 25° C. for 2 h 30 min and filtered over a celite pad. The filtrate was washed twice with ether and the aqueous solution was lyophilized, giving a yellow powder which was purified by column chromatography [Sephadex G-10, bed dimensions: 100×1.6 cm, flow rate: 12 ml/h, eluent: distilled water, fraction volume: 1.5 ml detector: refractive index]. The right fractions were combined and lyophilized to give a white powder (10 mg, 8.8%). UV λmax^H.sbsp.2 O 301 (ε=4930), 258 (ε=3290). IR (KBr) cm^-1 :1770 (c=o of β-lactam) and 1580 [drawing 587] The stability of compound 7 in aqueous solution was followed by UV; after 6 h: 301 (4795) and 258 (3105) and after 72 h: 301 (4565) and 258 (3150). […]

[23] = Staph. aureus A9606 (Pen-Res), read-out: Minimum Inhibitory Concentration (M.I.C.)
[24] = Escherichia coli, A203411, E. coli A20341-1; overnight 37° C.; read-out: Minimum Inhibitory Concentration (M.I.C.)
[25] = A21203, Proteus rettgeri A21203
[26] = Enterobacter cloacae, A9656, Enterobacter cloacae A9656
[27] = Staph. aureus A15097 (Meth-Res), read-out: Minimum Inhibitory Concentration (M.I.C.)
[28] = sample kept at 23° C. for 3 days, UV in H2 O

| SMILES | MIC [1, 23] | MIC [2] | MIC [3] | MIC [4, 24] | MIC [5, 25] | MIC [6] | MIC [7] | MIC ([8]; Pseudomonas aeruginosa A21213) | MIC [9] | MIC [10] | MIC [11] | MIC [12, 26] | MIC [13] | MIC [14, 27] | MIC [15] | MIC [16] | MIC [17] | MIC [18] | MIC [19] | MIC [20] | also measured |
| --- | --- | --- | --- | --- | --- | --- | --- | --- | --- | --- | --- | --- | --- | --- | --- | --- | --- | --- | --- | --- | --- |
| CC1=C(C(=O)O)N2C(=O)[C@@H](CO)[C@H]2S1 (relative stereo) [Example 68, trans 6-Hydroxymethyl-2-methylpenem-3-carboxylic Acid] | 63 µg/mL (≈ 293 µM) | 63 µg/mL (≈ 293 µM) | 63 µg/mL (≈ 293 µM) | 63 µg/mL (≈ 293 µM) | 63 µg/mL (≈ 293 µM) | 4 µg/mL (≈ 18.6 µM) | 16 µg/mL (≈ 74.3 µM) | 125 µg/mL (≈ 581 µM) | 125 µg/mL (≈ 581 µM) | 125 µg/mL (≈ 581 µM) | 125 µg/mL (≈ 581 µM) | 63 µg/mL (≈ 293 µM) | > 63 µg/mL | 63 µg/mL (≈ 293 µM) | 63 µg/mL (≈ 293 µM) | 125 µg/mL (≈ 581 µM) | 63 µg/mL (≈ 293 µM) | 63 µg/mL (≈ 293 µM) | 16 µg/mL (≈ 74.3 µM) | 63 µg/mL (≈ 293 µM) | – |
| NCC1=C(C(=O)O)N2C(=O)CC2S1 (stereo not shown) [Example 16, 2-Aminomethylpenem-3-carboxylic Acid] | 8 µg/mL (≈ 40 µM) | 2 µg/mL (≈ 9.99 µM) | 8 µg/mL (≈ 40 µM) | 16 µg/mL (≈ 79.9 µM) | 1 µg/mL (≈ 4.99 µM) | 1 µg/mL (≈ 4.99 µM) | 4 µg/mL (≈ 20 µM) | – | 1 µg/mL (≈ 4.99 µM) | 125 µg/mL (≈ 624 µM) | > 125 µg/mL | 8 µg/mL (≈ 40 µM) | 32 µg/mL | 63 µg/mL (≈ 315 µM) | 8 µg/mL (≈ 40 µM) | 1 µg/mL (≈ 4.99 µM) | – | 8 µg/mL (≈ 40 µM) | 2 µg/mL (≈ 9.99 µM) | 4 µg/mL (≈ 20 µM) | MIC [21]: 2 µg/mL (≈ 9.99 µM); MIC ([8]; Pseudomonas aeruginosa, A21213, Pseudomonas aeruginosa A21213): 1 µg/mL (≈ 4.99 µM); ε at λmax 255 in aqueous solution (stability) ([22]; 6 h): 2773; ε at λmax 307 in aqueous solution (stability) ([22]; 6 h): 3545; ε at λmax 255 in aqueous solution (stability) ([22]; 21 h): 2411; ε at λmax 307 in aqueous solution (stability) ([22]; 21 h): 3467; ε at λmax 254 in aqueous solution (stability) ([22]; 28 h): 2398; ε at λmax 307 in aqueous solution (stability) ([22]; 28 h): 3337; ε at λmax 254 in aqueous solution (stability) ([22]; 46 h): 2398; ε at λmax 307 in aqueous solution (stability) ([22]; 46 h): 3259; ε at λmax 307 in aqueous solution (stability) ([22]; 70 h): 3076; ε at λmax 307 in aqueous solution (stability) ([22]; 94 h): 2842; ε at λmax 307 in aqueous solution (stability) ([22]; 170 h): 1900; ε at λmax 255 (stability of stored sample) [22, 28]: 2008; ε at λmax 307 (stability of stored sample) [22, 28]: 3055 |
| O=C([O-])C1=C(c2cccnc2)S[C@@H]2CC(=O)N12.[Na+] [Example 53, Sodium 2-(3-Pyridyl)penem-3-carboxylate] | – | 2 µg/mL | 16 µg/mL | – | – | 0.06 µg/mL | 0.13 µg/mL | 125 µg/mL | 8 µg/mL | > 125 µg/mL | 8 µg/mL | – | > 63 µg/mL | – | 8 µg/mL | 125 µg/mL | 2 µg/mL | 16 µg/mL | 1 µg/mL | 2 µg/mL | MIC ([1]; read-out: Minimum Inhibitory Concentration (M.I.C.), Staph. aureus A9606 (Pen-Res)): 8 µg/mL; MIC ([4]; Escherichia coli, A203411; E. coli A20341-1; overnight 37° C.; read-out: Minimum Inhibitory Concentration (M.I.C.)): 63 µg/mL; MIC ([5]; Proteus rettgeri A21203): 2 µg/mL; MIC ([12]; Enterobacter cloacae A9656): 32 µg/mL; MIC ([14]; read-out: Minimum Inhibitory Concentration (M.I.C.), Staph. aureus A15097 (Meth-Res)): 16 µg/mL |
